Six cell lines from the supplement of paper PMC10307832 can be followed below.

Holding throughout (assay): relative viability (nuclei count vs DMSO), 5 days (fraction); higher = more cells survive
Compound in test [1]: CC1=CC=C(C=C1)C(=O)CN2C3=C(CCCC3)SC2=N [Pifithrin_alpha] + Nc1nc2[nH]cc(CCc3ccc(C(=O)N[C@@H](CCC(=O)O)C(=O)O)cc3)c2c(=O)[nH]1 [Pemetrexed] (partner 0.2 µM)
The gist of the method:
(§1)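 Relative viability was taken as the ratio of nuclei in treated wells to nuclei in vehicle wells. Lung cancer cell lines in 1536-well plates received compounds by pin tool one day after seeding, either one drug alone or a fixed anchor-drug dose plus five library-drug doses (not always all listed) in √10 steps. Nuclei were counted on 4× images after 5 days of treatment, and values are medians of duplicate plates.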

Compound in test [2]: CC1=CC=C(C=C1)C(=O)CN2C3=C(CCCC3)SC2=N [Pifithrin_alpha] + O=C(CCCCCCC(=O)Nc1ccccc1)NO [Vorinostat] (partner 1 µM)
Put shortly: as §1

Compound in test [3]: CC1=CC=C(C=C1)C(=O)CN2C3=C(CCCC3)SC2=N [Pifithrin_alpha] + COc1cccc2cc(-c3nc([C@H]4CC[C@H](C(=O)O)CC4)n4ncnc(N)c34)[nH]c12 [OSI-027] (partner 0.5 µM)
The gist of the method: as §1

Compound in the test “Axitinib + Pictilisib”: CNC(=O)c1ccccc1Sc1ccc2c(/C=C/c3ccccn3)n[nH]c2c1 [Axitinib] + CS(=O)(=O)N1CCN(Cc2cc3nc(-c4cccc5[nH]ncc45)nc(N4CCOCC4)c3s2)CC1 [Pictilisib] (partner 1 µM)
The gist of the method:
as §1

Take PC-14: the relative viability is 0.143 in test [1] (first compound 1 µM); 0.121 in test [1] (first compound 3.162 µM); 0.133 in test [1] (first compound 10 µM); 0.0962 in test [1] (first compound 31.62 µM); 0.0885 in test [1] (first compound 100 µM); 0.626 in test [2] (first compound 1 µM). The relative viability was determined as 0.77 in test [2] (first compound 3.162 µM); 0.802 in test [2] (first compound 10 µM); 0.414 in test [2] (first compound 31.62 µM); 0.625 in test [2] (first compound 100 µM); 0.822 in test [3] (first compound 1 µM); 0.889 in test [3] (first compound 3.162 µM). Further, the relative viability in test [3] (first compound 10 µM) turned out to be 0.827; in test [3] (first compound 31.62 µM), 0.464; in test [3] (first compound 100 µM), 0.605; in the test with Axitinib + Pictilisib (first compound 0.005 µM) it was 0.919; with Axitinib + Pictilisib (first compound 0.01581 µM), 0.699; in the test with Axitinib + Pictilisib (first compound 0.05 µM), 0.676. Also, the results for the relative viability in the test with Axitinib + Pictilisib (first compound 0.1581 µM) and with Axitinib + Pictilisib (first compound 0.5 µM) were 0.731 and 0.834, respectively.

RERF-LC-KJ: the relative viability in test [1] (first compound 1 µM) came to 0.437; in test [1] (first compound 3.162 µM) it was 0.445; in test [1] (first compound 10 µM), 0.507; in test [1] (first compound 31.62 µM), 0.452; in test [1] (first compound 100 µM) it was 0.396; in test [2] (first compound 1 µM) it was 0.329. Further, the relative viability was determined as 0.627 in test [2] (first compound 3.162 µM); 0.547 in test [2] (first compound 10 µM); 0.448 in test [2] (first compound 31.62 µM); 0.488 in test [2] (first compound 100 µM); 0.586 in test [3] (first compound 1 µM); 0.477 in test [3] (first compound 3.162 µM). Further, the relative viability came to 0.421 in test [3] (first compound 10 µM); 0.393 in test [3] (first compound 31.62 µM); 0.317 in test [3] (first compound 100 µM); 0.583 in the test with Axitinib + Pictilisib (first compound 0.005 µM); 0.654 with Axitinib + Pictilisib (first compound 0.01581 µM); 0.544 with Axitinib + Pictilisib (first compound 0.05 µM). Moreover, the relative viability in the test with Axitinib + Pictilisib (first compound 0.1581 µM) was 0.603; in the test with Axitinib + Pictilisib (first compound 0.5 µM), 0.51.

Regarding SK-LU-1, the relative viability in test [1] (first compound 1 µM) was 1.03; in test [1] (first compound 3.162 µM), 1.03; in test [1] (first compound 10 µM), 1.07; in test [1] (first compound 31.62 µM), 0.752; in test [1] (first compound 100 µM) it was 1.14; in test [2] (first compound 1 µM) it was 0.94. Further, the relative viability in test [2] (first compound 3.162 µM) turned out to be 0.862; in test [2] (first compound 10 µM) it was 0.774; in test [2] (first compound 31.62 µM), 0.676; in test [2] (first compound 100 µM) it was 0.75; in test [3] (first compound 1 µM), 0.353; in test [3] (first compound 3.162 µM) it was 0.353. The relative viability stood at 0.354 in test [3] (first compound 10 µM); 0.3 in test [3] (first compound 100 µM); 0.553 with Axitinib + Pictilisib (first compound 0.005 µM); 0.569 with Axitinib + Pictilisib (first compound 0.01581 µM); 0.558 in the test with Axitinib + Pictilisib (first compound 0.05 µM); 0.567 in the test with Axitinib + Pictilisib (first compound 0.1581 µM). The relative viability in the test with Axitinib + Pictilisib (first compound 0.5 µM) is 0.659.

For SK-MES-1, the relative viability in test [1] (first compound 1 µM) was 0.84; in test [1] (first compound 3.162 µM) it was 0.845; in test [1] (first compound 10 µM), 0.863; in test [1] (first compound 31.62 µM) it was 0.494; in test [1] (first compound 100 µM) it was 0.623; in test [2] (first compound 1 µM), 1.01. For the same cell line, the relative viability in test [2] (first compound 3.162 µM) turned out to be 0.95; in test [2] (first compound 10 µM), 0.959; in test [2] (first compound 31.62 µM) it was 0.591; in test [2] (first compound 100 µM) it was 0.852; in test [3] (first compound 1 µM), 0.575; in test [3] (first compound 3.162 µM), 0.59. The relative viability stood at 0.527 in test [3] (first compound 10 µM); 0.396 in test [3] (first compound 31.62 µM); 0.511 in test [3] (first compound 100 µM); 0.303 with Axitinib + Pictilisib (first compound 0.005 µM); 0.391 in the test with Axitinib + Pictilisib (first compound 0.01581 µM); 0.337 in the test with Axitinib + Pictilisib (first compound 0.05 µM). Further, the relative viability amounted to 0.409 with Axitinib + Pictilisib (first compound 0.1581 µM) and 0.481 with Axitinib + Pictilisib (first compound 0.5 µM).

As to SW 1573, the relative viability in test [1] (first compound 3.162 µM) was found to be 1.03; in test [1] (first compound 10 µM) it was 0.964; in test [1] (first compound 31.62 µM) it was 0.593; in test [1] (first compound 100 µM) it was 0.808; in test [2] (first compound 3.162 µM) it was 0.787; in test [2] (first compound 10 µM), 0.719. For the same cell line, the relative viability in test [2] (first compound 31.62 µM) worked out at 0.498; in test [2] (first compound 100 µM) it was 0.82; in test [3] (first compound 1 µM), 0.662; in test [3] (first compound 3.162 µM) it was 0.601; in test [3] (first compound 10 µM), 0.572; in test [3] (first compound 31.62 µM), 0.422. Besides, the relative viability in test [3] (first compound 100 µM) worked out at 0.76; in the test with Axitinib + Pictilisib (first compound 0.005 µM), 0.507; in the test with Axitinib + Pictilisib (first compound 0.01581 µM) it was 0.462; with Axitinib + Pictilisib (first compound 0.05 µM), 0.576; with Axitinib + Pictilisib (first compound 0.1581 µM), 0.444; in the test with Axitinib + Pictilisib (first compound 0.5 µM) it was 0.463.

For UMC-11, the relative viability came to 0.866 in test [1] (first compound 1 µM); 0.869 in test [1] (first compound 3.162 µM); 0.824 in test [1] (first compound 10 µM); 0.723 in test [1] (first compound 31.62 µM); 1.08 in test [1] (first compound 100 µM); 0.342 in test [2] (first compound 1 µM). Further, the relative viability in test [2] (first compound 3.162 µM) turned out to be 0.382; in test [2] (first compound 10 µM) it was 0.343; in test [2] (first compound 31.62 µM), 0.245; in test [2] (first compound 100 µM), 0.256; in test [3] (first compound 1 µM), 0.537; in test [3] (first compound 3.162 µM) it was 0.518. In addition, the relative viability in test [3] (first compound 10 µM) came to 0.56; in test [3] (first compound 31.62 µM) it was 0.485; in test [3] (first compound 100 µM), 0.456; with Axitinib + Pictilisib (first compound 0.005 µM) it was 0.818; with Axitinib + Pictilisib (first compound 0.01581 µM) it was 0.82; with Axitinib + Pictilisib (first compound 0.05 µM), 0.857. The relative viability amounted to 0.835 in the test with Axitinib + Pictilisib (first compound 0.1581 µM) and 0.627 in the test with Axitinib + Pictilisib (first compound 0.5 µM).
